According to ChEMBL document CHEMBL4385628, “New insights into the binding mode of pyridine-3-carboxamide inhibitors of E. coli DNA gyrase” (Bioorg Med Chem, 2019):
≈ marks a conversion by molar mass, not a printed value. Calls of active or inactive are those of the source. No cut-off for these calls is given here.

Legend:
[1] = target: DNA gyrase (Escherichia coli, UniProt P0AES4+P0AES6); assay: Inhibition of Escherichia coli DNA gyrase(A2B2 tetramer) preincubated for 5 mins followed by ATP addition and measured once per minute for 20 to 30 minutes by ATPase assay; format: protein-complex assay
[2] = target: DNA topoisomerase 2-alpha (Homo sapiens) (UniProt P11388); assay: Inhibition of human topoisomerase-2alpha up to 100 uM
Sequence of DNA topoisomerase 2-alpha (Homo sapiens) (P11388 whole entry): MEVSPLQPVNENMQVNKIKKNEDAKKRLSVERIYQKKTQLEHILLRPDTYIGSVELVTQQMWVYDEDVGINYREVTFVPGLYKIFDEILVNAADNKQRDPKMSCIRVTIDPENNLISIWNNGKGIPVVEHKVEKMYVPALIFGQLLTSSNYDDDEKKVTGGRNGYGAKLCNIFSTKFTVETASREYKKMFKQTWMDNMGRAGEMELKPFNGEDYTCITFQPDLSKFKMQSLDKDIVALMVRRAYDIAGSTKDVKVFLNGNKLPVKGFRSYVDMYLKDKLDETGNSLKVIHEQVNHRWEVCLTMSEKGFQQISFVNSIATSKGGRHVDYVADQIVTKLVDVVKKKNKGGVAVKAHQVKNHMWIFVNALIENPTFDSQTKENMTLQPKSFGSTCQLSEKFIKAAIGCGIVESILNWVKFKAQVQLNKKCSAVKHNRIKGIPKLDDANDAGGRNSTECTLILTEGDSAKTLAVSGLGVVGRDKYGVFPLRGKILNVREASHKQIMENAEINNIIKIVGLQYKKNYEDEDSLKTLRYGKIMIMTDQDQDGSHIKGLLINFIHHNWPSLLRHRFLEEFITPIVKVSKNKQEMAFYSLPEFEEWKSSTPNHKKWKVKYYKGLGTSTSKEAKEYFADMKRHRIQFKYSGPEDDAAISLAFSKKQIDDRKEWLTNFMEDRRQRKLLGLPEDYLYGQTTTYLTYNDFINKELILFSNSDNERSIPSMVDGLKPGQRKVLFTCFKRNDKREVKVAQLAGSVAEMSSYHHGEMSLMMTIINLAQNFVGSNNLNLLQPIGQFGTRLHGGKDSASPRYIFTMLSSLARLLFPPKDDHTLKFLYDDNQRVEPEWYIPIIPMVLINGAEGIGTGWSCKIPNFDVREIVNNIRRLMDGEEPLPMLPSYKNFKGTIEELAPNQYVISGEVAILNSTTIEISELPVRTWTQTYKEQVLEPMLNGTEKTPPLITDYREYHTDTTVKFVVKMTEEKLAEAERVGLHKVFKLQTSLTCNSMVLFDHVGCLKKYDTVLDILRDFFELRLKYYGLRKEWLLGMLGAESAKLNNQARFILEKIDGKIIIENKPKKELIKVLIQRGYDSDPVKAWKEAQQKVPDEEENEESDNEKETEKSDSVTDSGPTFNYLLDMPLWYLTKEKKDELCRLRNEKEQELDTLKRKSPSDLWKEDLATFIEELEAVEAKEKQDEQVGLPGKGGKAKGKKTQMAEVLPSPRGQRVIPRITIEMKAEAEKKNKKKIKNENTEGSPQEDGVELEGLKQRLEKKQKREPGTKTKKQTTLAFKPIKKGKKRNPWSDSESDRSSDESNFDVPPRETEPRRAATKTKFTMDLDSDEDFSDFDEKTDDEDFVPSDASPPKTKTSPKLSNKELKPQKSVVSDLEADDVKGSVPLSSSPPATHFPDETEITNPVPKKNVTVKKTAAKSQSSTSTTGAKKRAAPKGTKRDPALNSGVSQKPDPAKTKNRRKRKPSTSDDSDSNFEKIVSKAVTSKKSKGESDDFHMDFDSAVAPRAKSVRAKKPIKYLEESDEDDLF

[3] = system: Staphylococcus aureus; assay: Antibacterial activity against Staphylococcus aureus ATCC 29213 assessed as reduction in microbial growth by CLSI based broth microdilution method; format: functional
[4] = system: Escherichia coli; assay: Antibacterial activity against Escherichia coli ATCC 25922 assessed as reduction in microbial growth by CLSI based broth microdilution method; format: functional
[5] = Half life in human liver microsomes; format: ADME, Microsome
[6] = Apparent permeability across apical to basolateral side in human Caco2 cells; format: ADME, cell-based; details: Caco-2
[7] = Efflux ratio of apparent permeability across basolateral to apical over apical to basolateral side in human Caco2 cells; format: ADME, cell-based; details: Caco-2
[8] = Protein binding in human plasma; format: ADME, cell-free; details: read-out: PPB (converted)
[9] = Aqueous solubility of compound; format: physicochemical
[10] = Half life in mouse liver microsomes; format: ADME, Microsome

An IC50 [1] of 200 nM was found for CCNC(=O)Nc1cc(-n2ccnn2)c(C(=O)Nc2cccnc2)cn1 in this work.
In the case of CCNC(=O)Nc1cc(N2CCC(N)C2)c(C(=O)Nc2cccnc2)cn1 (stereo not given), the inhibition [2] is reported as “inactive”, the MIC [3] is reported as greater than 64 µg/mL and the MIC [4] is reported as greater than 64 µg/mL. For the same compound, the half-life [5] was 290 min, the Papp A→B [6] was 4.02 ×10⁻⁶ cm/s and the efflux ratio [7] was 2.78. The fraction unbound [8] was 0.498, the solubility [9] was 88.5 µM (≈ 32.7 µg/mL) and the IC50 [1] was 89 nM.
An MIC [3] of 64 µg/mL, an MIC [4] greater than 64 µg/mL and an IC50 [1] of 120 nM were found for CCNC(=O)Nc1cc(N2CCCC2)c(C(=O)Nc2cccnc2)cn1 in this work.
In the case of CCNC(=O)Nc1cc(Nc2ccc(OC)cc2)c(C(=O)Nc2cccnc2)cn1, the inhibition [2] is reported as “inactive”, the MIC [3] is reported as 4 µg/mL and the MIC [4] is reported as greater than 64 µg/mL. It also gave a half-life [5] of 20 min, a Papp A→B [6] of 11.8 ×10⁻⁶ cm/s and an efflux ratio [7] of 2.82. The fraction unbound [8] was 0.028, the solubility [9] was 2.4 µM (≈ 0.975 µg/mL) and the IC50 [1] was 19 nM.
An MIC [3] of 64 µg/mL, an MIC [4] greater than 64 µg/mL and an IC50 [1] of 150 nM were found for CCNC(=O)Nc1cc(-n2nccn2)c(C(=O)Nc2cccnc2)cn1 in this work.
A half-life [5] of 46 min, a half-life [10] of 58 min and a Papp A→B [6] of less than 2.67 ×10⁻⁶ cm/s were found for CCNC(=O)Nc1cc(Nc2cccc(C)c2)c(C(=O)Nc2cccc(C)c2)cn1 in this work. It also gave a fraction unbound [8] of 0.001 and a solubility [9] of 4.26 µM (≈ 1.72 µg/mL).
In the case of CCNC(=O)Nc1cc(-n2cccn2)c(C(=O)Nc2cccnc2)cn1, the inhibition [2] is reported as “inactive”, the MIC [3] is reported as 64 µg/mL and the MIC [4] is reported as greater than 64 µg/mL. The half-life [5] was 128 min, the half-life [10] was 24 min and the Papp A→B [6] was 1.23 ×10⁻⁶ cm/s. For the same compound, the efflux ratio [7] was 30.8, the fraction unbound [8] was 0.095 and the solubility [9] was 32.6 µM (≈ 11.5 µg/mL). The IC50 [1] was 86 nM.
An MIC [3] greater than 64 µg/mL, an MIC [4] greater than 64 µg/mL and an IC50 [1] of 82 nM were found for CCNC(=O)Nc1cc(-n2cncn2)c(C(=O)Nc2cccnc2)cn1 in this work.
With CCNC(=O)Nc1cc(-n2cc(Br)cn2)c(C(=O)Nc2cccnc2)cn1 the inhibition [2] was “inactive”, the MIC [3] was 16 µg/mL and the MIC [4] was greater than 64 µg/mL. The IC50 [1] was 37 nM.
An MIC [3] greater than 64 µg/mL, an MIC [4] greater than 64 µg/mL and an IC50 [1] of 410 nM were found for CCNC(=O)Nc1cc(Nc2ccccc2O)c(C(=O)Nc2cccnc2)cn1 in this work.
